These results are taken from patent publication US20230049572A1, “FORMULATION, COMPOSITION OR FOODSTUFF ADDITIVES FOR THE MODIFICATION OF GLYCEMIC RESPONSE METHODS OF MANUFACTURING AND USING THE SAME” (HOOW FOODS PTE. LTD., priority 2019, published 2023).

Each structure is given as a SMILES string. Where two headings read alike, the source gives them in different places.

In assay [1] the target is T1, bakers yeast a-glucosidase (Saccharomyces cerevisiae, UniProt P53341).
T1 construct: purchased Sigma-Aldrich
T1 sequence (P53341 whole entry): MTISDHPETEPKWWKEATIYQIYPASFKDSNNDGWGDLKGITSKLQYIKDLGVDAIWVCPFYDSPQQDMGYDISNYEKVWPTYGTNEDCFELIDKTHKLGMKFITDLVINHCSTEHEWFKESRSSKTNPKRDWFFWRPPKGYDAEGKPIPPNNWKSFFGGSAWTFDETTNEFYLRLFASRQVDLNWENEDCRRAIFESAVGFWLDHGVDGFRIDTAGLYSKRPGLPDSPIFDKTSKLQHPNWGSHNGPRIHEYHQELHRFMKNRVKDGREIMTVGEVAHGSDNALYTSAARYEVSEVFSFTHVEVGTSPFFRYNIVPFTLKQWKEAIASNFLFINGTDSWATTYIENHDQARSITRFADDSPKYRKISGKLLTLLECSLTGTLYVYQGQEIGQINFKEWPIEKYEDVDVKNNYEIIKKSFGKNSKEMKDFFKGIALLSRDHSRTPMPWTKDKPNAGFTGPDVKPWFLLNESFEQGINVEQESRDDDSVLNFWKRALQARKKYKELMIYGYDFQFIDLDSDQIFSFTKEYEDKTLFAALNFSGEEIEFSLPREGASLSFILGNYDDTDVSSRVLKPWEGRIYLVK
Kind of assay: In vitro flavonoid inhibition of alpha-glucosidase (pNPG). In kind it is biochemical. As for the experimental part:
The alpha-glucosidase inhibition was determined using purified alpha-glucosidase from yeast. An alpha-glucosidase reaction mixture contained 2.9 mM p-nitrophenyl-α-d-glucopyranoside (pNPG) (Sigma-Aldrich), 0.25 ml of flavonoid in DMSO and 0.6 U/ml of bakers yeast a-glucosidase (Sigma-Aldrich) in sodium phosphate buffer, pH 6.9. […] The reaction mixtures were incubated at 25° C. for 5 min, after which the reaction was stopped by boiling for 2 min. Absorbance of the resulting p-nitrophenol (pNP) were spectrophotometry determined at 405 nm and was considered directly proportional to the activity of the enzyme. Glucosidase activity inhibition was determined as percentage of control as follows:
In order to eliminate background readings, the absorbance of the flavenoid without substrate and enzyme was subtracted from absorbance of the flavonoid and substrate mixture as follows: Corrected A405 test samples=A405 flavonoid and substrate—A405 flavonoid alone (background).
The activity in controls (with a-glucosidase but without inhibitor) was considered to be 100%. […] Different flavonoids were compared on the basis of their ICso values estimated from the dose response curves.

The test system of another assay is alpha amylase. Kind of assay: Inhibition of alpha amylase (similar studies). The assay is classed as biochemical.
For assay [2] the following is noted: per dose / per meal; cited from earlier work.
Setting [3] is: pNPG 2.9 mM, pH 6.9, 25° C., 5 min, read-out: IC50, inhibition of yeast alpha-glucosidase.

For `O=c1cc(-c2ccc(O)c(O)c2)oc2cc(O)cc(O)c12` [Luteolin], the IC50 (in general, the concentration that inhibits the measured activity by half) in assay [1] (setting [3]) turned out to be 35 µM.
In the case of `O=c1cc(-c2ccc(O)cc2)oc2cc(O)cc(O)c12` [Apigenin], 90 µM corresponded to half-maximal inhibition in assay [1] (IC50).
For `O=C1c2c(O)cc(O)cc2O[C@H](c2cc(O)c(O)c(O)c2)[C@H]1O` [Dihydromyricetin, (2R,3R)-3,5,7-Trihydroxy-2-(3,4,5-trihydroxyphenyl)-2,3-dihydrochromen-4-one], in assay [1], the IC50 turned out to be 4 µM and the “enzyme inhibition (in words)” value is on record as “powerful enzyme inhibitors”. For the same molecule, the “inhibition of amylase (in words)” value in the assay with alpha amylase is reported as “effective at inhibiting amylase”.
As to `OC[C@H]1NC[C@H](O)[C@@H](O)[C@@H]1O` [1-DNJ, 1-deoxynojirimycin], the “upper efficacy limit / saturation dose above which no further reduction in glycemic response is obtained” value in assay [2] is given as 250 mg.
As to `O=c1c(O)c(-c2ccc(O)c(O)c2)oc2cc(O)cc(O)c12` [Quercetin, 2-(3,4-dihydroxyphenyl)-3,5,7-trihydroxy-4H-chromen-4-one], the “enzyme inhibition (in words)” value in assay [1] is on record as “powerful enzyme inhibitors”. Moreover, in the assay with alpha amylase, the “inhibition of amylase (in words)” value is on record as “effective at inhibiting amylase”.
Consider `O=c1c(O)c(-c2cc(O)c(O)c(O)c2)oc2cc(O)cc(O)c12` [Myricetin, 3,5,7-Trihydroxy-2-(3,4 trihydroxyphenyl)-4-chromenone], for which, in assay [1], the concentration for half-maximal inhibition (IC50) was 3.6 µM and the “enzyme inhibition (in words)” value was “powerful enzyme inhibitors”. Besides, in the assay with alpha amylase, the “inhibition of amylase (in words)” value is reported as “effective at inhibiting amylase”.
With `O=C(CCc1ccc(O)cc1)c1c(O)cc(O)cc1O` [Phloretin], the IC50 in assay [1] (setting [3]) was determined as 96 µM.
As to `O=c1cc(-c2ccccc2)oc2cc(O)cc(O)c12` [Chrysin], the inhibition at 200 µM in assay [1] (read-out: inhibition of yeast alpha-glucosidase at fixed concentration) is less than 20%.
`O=c1cc(-c2ccccc2)oc2cc(O)c(O)c(O)c12` [Baicalein]: the IC50 in assay [1] turned out to be 58 µM.
